Data on two compounds can be found in US20250041277A1, “METHODS AND DOSING REGIMENS COMPRISING A CDK2 INHIBITOR AND A CDK4 INHIBITOR FOR TREATING CANCER” (PFIZER INC., priority 2021, published 2025).

The subject of assay [1] is HCC1428 breast cancer model. The assay can be described thus: In vivo efficacy, HR+/HER2− HCC1428 breast cancer model (Example 3). On the set-up: species or system NSG mice. The conditions noted are these: HCC1428, Day 42; PO BID: PF-07104091 150 mpk, PF-07220060 60 mpk, palbociclib 10 mpk. The protocol: (§1) Female NSG mice (Jackson Lab) were subcutaneously implanted with fragment (27 mm^3 to 64 mm^3 size) into the dorsal region. All mice for T47D, HCC1428 and ST941 PBR studies were supplemented with 8.5 μg/mL estradiol water (β-Estradiol Sigma-Aldrich, cat #E2758-5G) and gave ad libitum till end of study. For the in vivo efficacy studies, tumor volume and body weights were measured twice a week. Tumor volume was calculated using the [(Length×Width×Width)/2)] formula. TGI was calculated as 100*(1−ΔT/ΔC). The ΔC (ΔT) was obtained by subtracting the mean tumor burden in the vehicle (treated) group on the first day of treatment (Day 0) from the mean tumor burden in vehicle (treated) group on the assessment day. Statistical analysis was performed using ANCOVA when the mean tumor volume in vehicle treated mice reached tumor cutoff size.
(§2) The HCC1428 model was established by implanting passage 4 tumor fragments into recipient mice. To establish the HCC1428 donor mice, tumor cells (5×10^6 cell/mouse with 50% Cultrex® Basement Membrane Matrix) were subcutaneously implanted in female NSG mice. Once reaching a range of 700 to 800 mm^3, donor tumors were subsequently transplanted into secondary recipient mice for a study expansion. […] PF-07104091 (lot 016), PF-07220060 (lot 019) and PD-0332991 (lot GR08498) were administered (PO.) BID (7 hr apart). All mice received treatment continuously until Day 42. TGI was assessed on Day 42 post first dose.

Assay [2] relates to HCC1428 breast cancer model. The experiment in a line: In vivo efficacy, HR+/HER2− HCC1428 breast cancer model (Example 4). On the set-up: species or system NSG mice. The conditions noted are these: HCC1428, Day 42; PO BID: PF-07104091 120 mpk, PF-07220060 60 mpk, PF-06873600 30 mpk, palbociclib 10 mpk; fulvestrant 10 mpk SC. How it is done: as §1, with “HCC1428, MCF7” for “T47D, HCC1428”
as §2, with “passage 1” for “passage 4”, “(lot 022),” for “(lot 016),”, “(lot CPo126812-01-SY-5700-01), PF-06873600 (lot 022)” for “(lot 019)”, “administered (PO)” for “administered (PO.)”, “hr apart) while fulvestrant (lot 20160224-2) at 10 mg/kg, SC twice in the first week, then weekly afterwards.” for “hr apart).”

Assay [3] concerns NCIH2023. The experiment in a line: Combinatorial activity in LUAD cell line NCIH2023. It is filed as cell-based. The conditions noted are these: NCI-H2023; NCIH2023, WT; single agent; read-out: (nM) s.a. The protocol:
Combinatorial activity of PF-07104091 and PF-07220060 was assessed in LUADs as single agents (s.a.) or in combination.

Assay [4] has as its system NCI-H23 lung adenocarcinoma (LUAD) cells. The assay can be described thus: Spheroid growth inhibition (SGI) assay, NCI-H23. It is filed as cell-based. The conditions noted are these: NCI-H23 spheroids; 30 nM palbociclib, 300 nM PF-07220060, 300 nM PF-07104091; 14 days. The protocol: NCI-H1792 and NCI-H23 lung adenocarcinoma (LUAD) cells lines were obtained from ATCC and maintained in RPMI 1640 medium supplemented with 10% fetal bovine serum and penicillin-streptomycin as per ATCC guidelines. Cells were maintained in humidified incubator at 37° C. with 5% CO2.
Spheroid assays were performed in 96 well ultralow attachment plates (ULA-96U) from Nexcelom & Thermo Fisher Scientific. […] To aid spheroid formation, dispensed cells were centrifuged at 220×g for 6 minutes in the ultralow attachment plates and allowed to form compact spheroids for 4 days prior to the initiation of treatment. […] DMSO (0.01%) was used as the vehicle control. DMSO and all compounds were diluted in cell medium. Medium and compounds were replenished twice per week, with 3 and 4-day intervals. Replenishment was executed by aspirating 150 μL of medium per well without disturbing the spheroid and then adding the same volume of premixed medium/compound solution to spheroids. Spheroid diameter was quantified immediately following each medium change twice a week (on every 3rd or 4th day) throughout the duration of the assay.
Average diameters of tumor spheroids were plotted in GraphPad Prism 8 and the AUC calculated. AUC baseline was determined by the average tumor spheroid diameter at Day 0 in the vehicle (DMSO) controls. Spheroid growth inhibition, or SGI, was calculated as follows: SGI=(1−AUC treatment/AUC DMSO)×100%. SGI for all treatment arms was derived at the timepoint when the vehicle (DMSO) treated spheroids reach their maximal diameter (usually close to 1 mm but this can differ among cell lines); this corresponds to the last time point taken for the vehicle (DMSO) treated spheroids. SEM was calculated based on n=10 to 12 wells per test group.
Growth of lung adenocarcinoma multicellular tumor spheroids (MCTS) was monitored over time to assess: (i) amplitude of response (SGI) and (ii) duration of response to the CDK4 inhibitor PF-07220060 as a single agent, and in combination with the CDK2 inhibitor PF-07104091.

Assay [5] deals with T47D breast cancer model. The assay can be described thus: In vivo efficacy, HR+/HER2− T47D breast cancer model (Example 3). The arrangement: species or system NSG mice. Particulars: Day 41, PO BID: PF-07104091 150 mpk, PF-07220060 60 mpk, palbociclib 10 mpk. How it is done:
as §1
as §2, with “The T47D” for “The HCC1428”, “passage 3” for “passage 4”, “the T47D” for “the HCC1428”, “Day 41.” for “Day 42.”, “Day 41” for “Day 42”

For `COCc1cc(C(=O)Nc2cc([C@H]3CC[C@@H](OC(=O)NC(C)C)C3)[nH]n2)n(C)n1` [PF-07104091, (1R,3S)-3-[3-({[3-(methoxymethyl)-1-methyl-1H-pyrazol-5-yl]carbonyl}amino)-1H-pyrazol-5-yl]cyclopentyl propan-2-ylcarbamate], the TGI % in assay [1] came to 95%; in assay [2], 79%; in assay [5], 82%. Besides, the IC50 in assay [3] was more than 450 nM. Further, in assay [4], the “SGI (%)” value was found to be 9%.

Consider `CC(C)n1c(C(C)(C)O)nc2c(F)cc(-c3nc(N[C@@H]4CCOC[C@H]4O)ncc3Cl)cc21` [PF-07220060, 1,5-anhydro-3-({5-chloro-4-[4-fluoro-2-(2-hydroxypropan-2-yl)-1-(propan-2-yl)-1H-benzimidazol-6-yl]pyrimidin-2-yl}amino)-2,3-dideoxy-D-threo-pentitol], for which the TGI % in assay [1] is listed as 89%; in assay [2], 70%; in assay [5], 73%. The IC50 in assay [3] was 310 nM. Besides, in assay [4], the “SGI (%)” value was 35%.
